Earlier results on 1 substance are cited in patent US6620446B2, “Antibacterial composition for control of gram positive bacteria in food applications” (Rhodia, Inc., priority 2000, dated 2003).

For the data set, the system named is L. monocytogenes. The note with it: reported by M. Doyle, Food Technology 1988.

As for nisin, the “initial inhibition of the organism's growth, duration” value was “about 12 hours”.
